Data as given in the NIST ThermoML archive (doi:10.1016/j.jct.2017.03.010).
Numbers after ± are expanded uncertainties.

Conditions: Liquid, Closed cell (Static) method

For `FC(F)C(F)F` [1,1,2,2-tetrafluoroethane], the “vapor or sublimation pressure” value (303.15 K) was 613.8 ± 2.1 kPa, the “vapor or sublimation pressure” value (313.15 K) was 817.1 ± 2.7 kPa and the “vapor or sublimation pressure” value (323.15 K) was 1065.9 ± 3.5 kPa. The “vapor or sublimation pressure” value (333.15 K) was 1368.5 ± 4.5 kPa and the “vapor or sublimation pressure” value (343.15 K) was 1730.2 ± 5.7 kPa.
